Values quoted from earlier work in patent publication US9694008B2, “Fast-dissolving oral film preparation comprising aripiprazole” (CMG Pharmaceutical CO., LTD., priority 2012, dated 2017).

Conditions: at 25° C.

O=C1CCc2ccc(OCCCCN3CCN(c4cccc(Cl)c4Cl)CC3)cc2N1 [aripiprazole, 7-{4-[4-(2,3-dichlorophenyl)piperazin-1-yl]butoxy}-3,4-dihydroquinolin-2(1H)-one]
Solubility in water: about 0.00001 w/v %
